Test system: peptide-reactive IgG
Assay: ELISA of anti-C-35 and anti-NS5A-2132 IgG in sera: cross reactivity, HLA and genotype restriction (Example 3)
Type: binding, human
Excerpt: Two peptides with a purity of 90% or more were purchased from BIOSYNTHESIS (Lewisville, Tex.): HCV-1b core protein 35-44 ([…] (SEQ ID NO: 1) capable of inducing an HLA-A2-restricted CTL activity) and HCV-1b NS5A protein 2132-2140 ([…] (SEQ ID NO: 2) capable of inducing an HLA-A24-restricted CTL activity). As a negative control, peptides derived from HIV with an HLA-A2-binding motif ([…] (SEQ ID NO: 64)) and an HLA-A24-binding motif ([…] (SEQ ID NO: 63)) were used.
The level of peptide-specific IgG was measured by an enzyme-linked immunosorbent assay (ELISA). Briefly, each peptide was dissolved in dimethyl sulfoxide (DMSO) and stored at −20° C. The peptide (20 μg/well) diluted with 0.1 M carbonate buffer containing disuccinimidyl suberate (DSS) (PIERCE, Rockford, Ill.) as a chemical crosslinker was bound to an ELISA plate. The wells were washed 3 times with 0.05% Tween 20/PBS (PBST). Then, the plate was blocked overnight at 4° C. with Block Ace (Yukijirushi, Tokyo, Japan). A serum sample was diluted 1:100, 1:200 or 1:400 with 0.05% Tween 20/Block Ace, and 100 μl/well of the sample was added to each well. After the sample was incubated at 37° C. for 2 hours, the plate was washed 9 times with PBST, and further incubated at 37° C. for 2 hours with 100 μl/well of a 1:1000 diluted rabbit anti-human IgG (γ-chain specific) (DAKO Glostrup, Denmark). After the plate was washed 9 times, 100 μl/well of a 1:100 diluted anti-rabbit IgG-conjugated horseradish peroxidase-dextran polymer (En Vision, DAKO) was added to each well, and then the plate was incubated at room temperature for 40 minutes. After the plate was washed, 100 μl/well of a tetramethylbenzidine substrate solution (KPL, Guildford, UK) was added, and the reaction was stopped by the addition of 1.0 M phosphoric acid.
The cross reactivity of two antibodies reactive to the peptides derived from HCV-1b was examined. The sera obtained from 60 HCV patients and patients who are not included in the cohort study (CH, n=22, LC, n=21 and HCC, n=17) were examined for reactivity to the peptides of the core 35-44 (C-35) and NS5A 2132-2140 (NS5A-2132). The sera were also obtained from 24 subjects with an autoimmune disease, 17 cases of HBV infection and 10 cases of HTLV-1 infection. The sera obtained from 37 HDs were used as a negative control. The level of peptide-reactive IgG contained in the serially diluted serum samples was measured by ELISA. The results are reported by the absorbance (OD) of each sample. The representative results of OD at a serum dilution of 100:1 are shown. The cut-off value was set at 0.093 (mean+2 SD of OD from HDs). The statistical analysis was carried out using the χ^2-test. Values of P<0.05 were considered statistically significant.
Then, the correlation between the HLA-class IA phenotype and the level of anti-C-35 IgG or anti-NS5A-2132 IgG was examined in 29 patients with a disease associated with HCV. The HLA-class IA phenotype was determined by a standard serological method. Nine patients were HLA-A2^+, 13 patients were A24^+, and the remaining 7 patients were A2^−-A24^−. The levels of Anti-C-35 and anti-NS5A-2132 were measured by a standard ELISA and the OD value of each patient at a serum dilution of 100:1 is shown in the figure.
Also the correlation between the HCV genotype and the level of anti-C-35 IgG or anti-NS5A-2132 IgG was examined in a double blind study in patients infected with HCV-1b (n=29), HCV-2a (n=16) and HCV-2b (n=3). The HCV genotype was determined by directly sequencing HCV in the serum of the patient. The levels of anti-C-35 and anti-NS5A-2132 were measured by a standard ELISA and the OD value of each patient at a serum dilution of 100:1 is shown. The cut-off value was set at 0.093 (mean+2 SD of OD from HDs).
Then, the sera of CH (n=24), LC (n=22), HCC (n=26) and HDs (n=9) were newly prepared and the level of anti-NS5A-2132 IgG was measured (FIG. 26). […]

[1] = out of 60, cut-off 0.093 OD, serum dilution 100:1

## YLLPRRGPRL [No. 40]
  IgG level among the 3 groups (CH, LC and HCC patients): no significant difference in the IgG level among the 3 groups
29 patients: HLA-A2+, A24+, A2-A24-
  detection of the anti-peptide antibody by HLA-class IA phenotype: detected in the majority of the patients
Autoimmune disease, HBV, HTLV-1
  positivity of sera from the other (not HCV) groups: not positive
Out of 10 cases
  number of HTLV-1+ subjects with a significant level of anti-peptide IgG: 8
[1]
  number of HCV-positive patients with a significant level of anti-peptide IgG: 56
  percentage of HCV-positive patients with a significant level of anti-peptide IgG: 93.3%
Patients infected with HCV-1b, out of 30
  number of patients with the anti-peptide antibody detected: 26
Patients infected with HCV-2a, out of 15 (C-35) or 16 (NS5A-2132)
  number of patients with the anti-peptide antibody detected: 15
Patients infected with HCV-2b, out of 3
  number of patients with the anti-peptide antibody detected: 3

Source: patent US20080063643A1, “Peptide Derived From Hepatitis C Virus” (priority 2003, published 2008)
